# Test results: patent US10342697B2, “Systems and methods for delivering drugs to an eye” (Avedro, Inc., priority 2016, dated 2019)
# “Also recorded” adds a separate entry of the source.
# Assays:
# [1] = tested on: epithelium; assay: Corrosiveness/damage to the epithelium; conditions: compared with BAC
# [2] = tested on: pig eyes with intact epithelium; assay: Relative fluorescence F/Fo of cross-linked corneal flaps, Polidocanol vs BAC riboflavin solutions (Study 4); conditions: 20 min soak, 30 mW/cm^2, FIGS. 7-15
# Protocol: The epitheliums of eyes in Group A were removed with a dull blade after the eyes were soaked in one of the solutions and irradiated pan-corneally on air with a top hat beam (3% root mean square) for 4 minutes with 365-nm light source (UV LED NCSU033B[T]; Nichia Co., Tokushima, Japan) at a chosen irradiance of 30 mW/cm^2 which was measured with a power sensor (model PD-300-UV; Ophir, Inc., Jerusalem, Israel) at the corneal surface. Corneal flaps (approximately 200 μm thick) were excised from the eyes with aid of an Intralase femtosecond laser (Abbot Medical Optics, Santa Ana, Calif.). The average thickness of the corneal flaps was calculated as a difference between the measurements before and after the excision from the eyes with an ultrasonic Pachymeter (DGH Technology, Exton, Pa.). The flaps were washed with distilled water and dried in a vacuum until the weight change became less than 10% (Rotary vane vacuum pump RV3 A652-01-903, BOC Edwards, West Sussex, UK). […] Papain digests were diluted 0.5 times with 1×BBBS and fluorescence of the solutions was measured with excitation of 360 nm in a QM-40 Spectrofluorometer (Photon Technology Int., London, Ontario, Canada). The fluorescence of the papain buffer was taken into account by measuring fluorescence in the absence of tissue and subtracting this value from the fluorescence of the samples. […]
substance,measurement,setting,value
Polyoxyethylene (9) lauryl ether [Polidocanol],corrosive and damaging to the epithelium,[1],less corrosive and damaging to the epithelium than BAC
same,enhancing permeability in the epithelium and generating cross-linking activity,[2],more effective than many other surfactants; also recorded: far more effective and efficient than BAC
